Literature values as cited in patent publication US20030109508A1, “Methods for treating dry eye” (Alcon, Inc., priority 2001, published 2003).

Test system: human conjunctival epithelial cells
Conditions: background statement, no data given

CCCCC[C@H](O)/C=C/C=C\C/C=C\C/C=C\CCCC(=O)O [15-HETE]
secretion of mucin-1 (MUC-1): increase the secretion of mucin-1 (MUC-1)
